≈ marks a conversion by molar mass, not a printed value.

In general, MIC refers to the least concentration at which growth counts as inhibited. A low value points to inhibition by little substance.

Test systems include Escherichia coli AS1.349; Bacillus cereus AS1.126; Escherichia coli K-12; Klebsiella pneumoniae; Aspergillus fumigatus; Candida albicans; Escherichia coli JM109; Staphylococcus aureus; Bacillus subtilis; Escherichia coli.
Test in all cases: ≥ marks a high value that may be exact or a test limit, other limits are often not marked, values filed in µg/mL are converted to µM
In experiment [1] the test system is Pseudomonas aeruginosa PAO1.
Experiment [2] relates to Staphylococcus aureus USA 300.
Experiment [3] has as its system Staphylococcus aureus ATCC 25923.
The subject of experiment [4] is Staphylococcus aureus USA 300 LAC.
In experiment [5] the test system is Lactococcus lactis AS1.1690.
Experiment [6] concerns Proteus mirabilis CICC 22931.
The test system of experiment [7] is Klebsiella pneumoniae subsp. pneumoniae CGMCC 1.176.
The subject of experiment [8] is Acinetobacter baumannii CICC 22934.
Experiment [9] has as its system Pseudomonas aeruginosa CGMCC 1.860.
Experiment [10] has as its system Enterobacter cloacae CGMCC 1.58.
The subject of experiment [11] is Enterococcus faecium CGMCC 1.2334.
The subject of experiment [12] is Klebsiella aerogenes CGMCC 1.876.
Experiment [13] has as its system Enterococcus faecalis CGMCC 1.595.
Experiment [14] deals with Staphylococcus aureus AS1.72.
The test system of experiment [15] is Staphylococcus aureus NCTC 8325-4.
For experiment [16], the system named is Staphylococcus aureus ATCC 6538P.
Experiment [17] concerns Streptococcus pyogenes ATCC 19615.
The test system of experiment [18] is Salmonella enterica subsp. enterica serovar Typhimurium ATCC 14028.
The subject of experiment [19] is Pseudomonas aeruginosa ATCC 27853.
In experiment [20] the test system is Enterococcus faecalis ATCC 29212.
Experiment [21] relates to Klebsiella pneumoniae ATCC 13883.
Experiment [22] concerns Escherichia coli ATCC 25922.

Turning to `CC[C@H](C)[C@H](NC(=O)[C@H](CC(=O)O)NC(=O)[C@H](Cc1c[nH]c2ccccc12)NC(=O)[C@H](CC(C)C)NC(=O)[C@@H](N)CCCN=C(N)N)C(=O)N[C@H](C(=O)N[C@@H](CCCN=C(N)N)C(=O)N[C@@H](CCCN=C(N)N)C(=O)N[C@@H](Cc1c[nH]c2ccccc12)C(=O)N[C@H](C(=O)NCC(=O)N[C@@H](Cc1c[nH]c2ccccc12)C(=O)N[C@@H](CC(C)C)C(N)=O)C(C)C)C(C)C` [RLWDIVRRWVGWL], the MIC in experiment [1] was found to be 9.12 µM (≈ 16 µg/mL); in experiment [2], 1.14 µM (≈ 2 µg/mL); in [3], 2.28 µM (≈ 4 µg/mL); in experiment [4] it was 4.56 µM (≈ 8 µg/mL).

On to `CC(C)C[C@H](NC(=O)[C@H](CCCCN)NC(=O)[C@H](CCCN=C(N)N)NC(=O)[C@H](Cc1cnc[nH]1)NC(=O)[C@H](C)NC(=O)[C@H](CCCN=C(N)N)NC(=O)[C@H](Cc1cnc[nH]1)NC(=O)CNC(=O)[C@H](Cc1ccccc1)NC(=O)[C@H](CCCN=C(N)N)NC(=O)[C@H](CCCN=C(N)N)NC(=O)CNC(=O)[C@H](Cc1cnc[nH]1)NC(=O)[C@H](CCCN=C(N)N)NC(=O)CNC(=O)[C@@H](NC(=O)[C@H](CCCCN)NC(=O)[C@@H](N)CO)C(C)C)C(=O)O` [SKVGRHGRRFGHRAHRKL], for which the MIC (in the experiment on Escherichia coli AS1.349; in experiment [5]; in [6]; in experiment [7]; in [8]; in [9]) was at least 100 µM throughout. Also, the MIC (in experiment [10]; with Bacillus cereus AS1.126; in experiment [11]; in experiment [12]; in experiment [13]; in [14]) was at least 100 µM throughout.

Regarding `CC[C@H](C)[C@H](N)C(=O)N[C@@H](CCCCN)C(=O)N[C@@H](CCCCN)C(=O)N[C@H](C(=O)N[C@H](C(=O)N[C@@H](CCCCN)C(=O)N[C@@H](CCCCN)C(=O)N[C@H](C(N)=O)[C@@H](C)CC)[C@@H](C)CC)[C@@H](C)CC` [IKKIIKKI], the MIC against Escherichia coli K-12 was at least 500 µM; in experiment [1], over 500 µM; against Klebsiella pneumoniae, over 500 µM; in [15], at least 500 µM.

Turning to `N[C@@H](Cc1ccccc1)C(=O)N1CCC[C@H]1C(=O)N[C@@H](Cc1c[nH]c2ccccc12)C(=O)N[C@@H](Cc1c[nH]c2ccccc12)C(=O)N[C@@H](Cc1c[nH]c2ccccc12)C(=O)N1CCC[C@H]1C(=O)N[C@@H](Cc1ccccc1)C(=O)O` [FPWWWPF], the MIC in the experiment with Aspergillus fumigatus was at least 469 µM; with Candida albicans, over 939 µM.

As to `CC(C)C[C@H](NC(=O)[C@H](CCCCN)NC(=O)[C@H](CCCN=C(N)N)NC(=O)[C@H](Cc1cnc[nH]1)NC(=O)[C@H](C)NC(=O)[C@H](CCCN=C(N)N)NC(=O)[C@H](Cc1cnc[nH]1)NC(=O)CNC(=O)[C@H](Cc1ccccc1)NC(=O)[C@H](CCCN=C(N)N)NC(=O)[C@H](CCCN=C(N)N)NC(=O)[C@H](CC(C)C)NC(=O)[C@H](Cc1cnc[nH]1)NC(=O)[C@H](CCCN=C(N)N)NC(=O)CNC(=O)[C@@H](NC(=O)[C@H](CCCCN)NC(=O)[C@@H](N)CO)C(C)C)C(=O)O` [SKVGRHLRRFGHRAHRKL], the MIC was at least 100 µM against Escherichia coli AS1.349; 18.8 µM (≈ 41.5 µg/mL) in experiment [5]; at least 100 µM in experiment [6]; at least 100 µM in experiment [7]; at least 100 µM in experiment [8]; at least 100 µM in experiment [9]. Besides, the MIC is at least 100 µM in experiment [10]; 9.38 µM (≈ 20.7 µg/mL) with Bacillus cereus AS1.126; 18.8 µM (≈ 41.5 µg/mL) in experiment [11]; at least 100 µM in experiment [12]; 18.8 µM (≈ 41.5 µg/mL) in [13]; 12.5 µM (≈ 27.6 µg/mL) in [14].

Regarding `CC[C@H](C)[C@H](NC(=O)[C@H](C)NC(=O)[C@H](CC(C)C)NC(=O)[C@H](CS)NC(=O)[C@H](Cc1cnc[nH]1)NC(=O)[C@H](C)NC(=O)[C@H](C)NC(=O)[C@H](CS)NC(=O)[C@@H](N)CC(C)C)C(=O)N[C@@H](CC(C)C)C(=O)N[C@@H](CCCN=C(N)N)C(=O)N[C@@H](CCCN=C(N)N)C(N)=O` [LCAAHCLAILRR], the MIC in the experiment with Escherichia coli JM109 came out at 17.9 µM; in experiment [16] it was 7.46 µM; against Staphylococcus aureus, 47.8 µM.

On to `CC(C)C[C@H](N)C(=O)N[C@@H](Cc1ccc(O)cc1)C(=O)N[C@@H](CCCN=C(N)N)C(=O)N[C@@H](CCCN=C(N)N)C(=O)N[C@@H](CCCN=C(N)N)C(=O)N[C@@H](Cc1ccccc1)C(=O)N[C@H](C(=O)N[C@H](C(=O)NCC(=O)N[C@@H](CCCN=C(N)N)C(N)=O)C(C)C)C(C)C` [LYRRRFVVGR], for which the MIC was at least 50 µM in [17]; 25 µM (≈ 33 µg/mL) in [3]; at least 50 µM against Bacillus subtilis; 200 µM (≈ 264 µg/mL) in experiment [18]; 200 µM (≈ 264 µg/mL) in experiment [19]; 25 µM (≈ 33 µg/mL) in experiment [20]. Further, the MIC in [21] is at least 200 µM; against Escherichia coli, 50 µM (≈ 66 µg/mL).

For `CC[C@H](C)[C@H](NC(=O)[C@H](C)NC(=O)[C@H](CC(C)C)NC(=O)[C@H](CCCN=C(N)N)NC(=O)[C@H](Cc1cnc[nH]1)NC(=O)[C@H](C)NC(=O)[C@H](C)NC(=O)[C@H](CCCN=C(N)N)NC(=O)[C@@H](N)CC(C)C)C(=O)NCC(=O)N[C@@H](CCCN=C(N)N)C(=O)N[C@@H](CCCN=C(N)N)C(N)=O` [LRAAHRLAIGRR], the results for the MIC (against Escherichia coli JM109; in experiment [16]; against Staphylococcus aureus) were 11.5 µM (≈ 16 µg/mL), 4.32 µM (≈ 6 µg/mL) and 46.1 µM (≈ 64 µg/mL), respectively.

In the case of `CC[C@H](C)[C@H](NC(=O)[C@H](CCCCN)NC(=O)[C@H](CCCN=C(N)N)NC(=O)[C@H](CC(C)C)NC(=O)[C@H](Cc1c[nH]c2ccccc12)NC(=O)[C@H](Cc1c[nH]c2ccccc12)NC(=O)[C@H](Cc1c[nH]c2ccccc12)NC(=O)[C@@H](N)Cc1c[nH]c2ccccc12)C(N)=O` [WWWWLRKI], the MIC in experiment [22] is 12.5 µM (≈ 15.9 µg/mL); in experiment [4], 2.16 µM (≈ 2.74 µg/mL); in [21] it was 8.8 µM (≈ 11.2 µg/mL).

Take `CC(C)C[C@H](NC(=O)[C@H](CCCCN)NC(=O)[C@H](CCCN=C(N)N)NC(=O)[C@H](Cc1cnc[nH]1)NC(=O)[C@H](C)NC(=O)[C@H](CCCN=C(N)N)NC(=O)[C@H](Cc1cnc[nH]1)NC(=O)[C@H](CC(C)C)NC(=O)[C@H](Cc1ccccc1)NC(=O)[C@H](CCCN=C(N)N)NC(=O)[C@H](CCCN=C(N)N)NC(=O)[C@H](CC(C)C)NC(=O)[C@H](Cc1cnc[nH]1)NC(=O)[C@H](CCCN=C(N)N)NC(=O)CNC(=O)[C@@H](NC(=O)[C@H](CCCCN)NC(=O)[C@@H](N)CO)C(C)C)C(=O)O` [SKVGRHLRRFLHRAHRKL]: the MIC in the experiment with Escherichia coli AS1.349 was at least 100 µM; in experiment [5] it was 4.69 µM (≈ 10.6 µg/mL); in experiment [6], at least 100 µM; in experiment [7], at least 100 µM; in experiment [8], at least 100 µM; in experiment [9], at least 100 µM. In addition, the MIC in experiment [10] is at least 100 µM; with Bacillus cereus AS1.126, 2.34 µM (≈ 5.31 µg/mL); in [11], 3.13 µM (≈ 7.1 µg/mL); in experiment [12], at least 100 µM; in [13] it was 4.69 µM (≈ 10.6 µg/mL); in experiment [14], 2.34 µM (≈ 5.31 µg/mL).

The values above are taken from DBAASP.
